Among the data in ChEMBL document CHEMBL3639166, “Heteroaryloxyheterocyclyl compounds as PDE10 inhibitors” (2013) are IC50 values, retold here.

This test concerns the target T1, cAMP and cAMP-inhibited cGMP 3',5'-cyclic phosphodiesterase 10A (Rattus norvegicus, UniProt Q9QYJ6).
T1 sequence (Q9QYJ6 whole entry): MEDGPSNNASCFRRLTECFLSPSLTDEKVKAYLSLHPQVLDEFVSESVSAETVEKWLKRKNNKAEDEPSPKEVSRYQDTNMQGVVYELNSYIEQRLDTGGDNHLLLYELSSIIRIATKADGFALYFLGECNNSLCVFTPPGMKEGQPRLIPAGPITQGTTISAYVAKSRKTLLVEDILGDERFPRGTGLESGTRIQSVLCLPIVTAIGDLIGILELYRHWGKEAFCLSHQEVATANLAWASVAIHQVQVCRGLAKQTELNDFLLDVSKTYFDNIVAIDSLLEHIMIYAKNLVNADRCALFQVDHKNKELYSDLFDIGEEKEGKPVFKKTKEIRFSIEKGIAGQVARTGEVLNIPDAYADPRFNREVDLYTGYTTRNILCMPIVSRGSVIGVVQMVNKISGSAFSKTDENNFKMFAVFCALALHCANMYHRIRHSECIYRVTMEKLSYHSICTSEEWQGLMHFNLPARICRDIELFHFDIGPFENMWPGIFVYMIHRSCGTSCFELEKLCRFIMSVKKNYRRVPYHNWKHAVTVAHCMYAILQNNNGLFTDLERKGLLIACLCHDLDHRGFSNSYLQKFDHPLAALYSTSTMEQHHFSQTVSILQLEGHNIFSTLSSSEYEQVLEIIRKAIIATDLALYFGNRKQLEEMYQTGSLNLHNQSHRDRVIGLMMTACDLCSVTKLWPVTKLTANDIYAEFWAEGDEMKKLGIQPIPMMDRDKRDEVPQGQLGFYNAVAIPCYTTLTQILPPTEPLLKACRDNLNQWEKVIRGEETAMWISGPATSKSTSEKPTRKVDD
In words: Enzyme Inhibition Assay: Enzyme activity: An IMAP TR-FRET assay was used to analyze the enzyme activity (Molecular Devices Corp., Sunnyvale, Calif). (In TR-FRET formats the signal depends on donor and acceptor labels being close together.)

Usually IC50 stands for the concentration at which inhibition is half-maximal. Consider `OCC1CCN(c2cncc(OC3CN(c4ccc5ccccc5n4)C3)n2)CC1`, for which the midpoint of inhibition, the IC50, lay at 0.639 nM.

For `OCC1CCN(c2nccnc2OC2CN(c3ccc4ccccc4n3)C2)CC1`, the IC50 was 2.3 nM. Next, `OCC1CCN(c2nccnc2OC2CN(c3cnc4ccccc4n3)C2)CC1`: 37.8 nM. The result for `OCC1CCN(c2nccnc2O[C@@H]2CCN(c3ccc4ccccc4n3)C2)CC1` reads 167 nM. Turning to `OCC1CCN(c2nccnc2O[C@H]2CCN(c3ccc4ccccc4n3)C2)CC1`, the 50% inhibitory concentration (IC50) worked out at 78 nM.

In turn, `OCC1CCN(c2nc3ccccc3nc2OC2CN(c3ccc4ccccc4n3)C2)CC1` displayed an IC50 of 9.75 nM. For `OC1CCN(c2nccnc2OC2CN(c3ccc4ccccc4n3)C2)CC1`, 26.1 nM corresponded to half-maximal inhibition (IC50).

The molecule `CC1CCN(c2nccnc2OC2CN(c3ccc4ccccc4n3)C2)CC1` showed an IC50 of 124 nM. Regarding `CN(C)C1CCN(c2nccnc2OC2CN(c3ccc4ccccc4n3)C2)CC1`, the IC50 was determined as 520 nM.

For the molecule `N#CC1CCN(c2cccnc2OC2CN(c3ccc4ccccc4n3)C2)CC1`, the midpoint of inhibition, the IC50, lay at 68.9 nM. Next, `OC1CCN(c2nccnc2OC2CCN(c3ccc4ccccc4n3)CC2)CC1`: 198 nM. For `c1ccc2nc(N3CCC(Oc4nccnc4N4CCOCC4)CC3)ccc2c1`, the IC50 stood at 254 nM. The result for `O[C@@H]1CCN(c2nccnc2OC2CCN(c3ccc4ccccc4n3)CC2)C1` reads 356 nM; that for `O[C@H]1CCN(c2nccnc2OC2CCN(c3ccc4ccccc4n3)CC2)C1`, 198 nM.

For `OC1CN(c2nccnc2OC2CCN(c3ccc4ccccc4n3)CC2)C1`, half-maximal inhibition (IC50) was put at 1220 nM. The result for `c1ccc2nc(N3CCC(Oc4nccnc4N4CCCCC4)CC3)ccc2c1` reads 403 nM. `c1ccc2nc(N3CCC(Oc4nccnc4N4CCCC4)CC3)ccc2c1` came in with a concentration for half-maximal inhibition (IC50) of 286 nM. Next, `c1ccc2nc(N3CCC(Oc4nccnc4N4CCC4)CC3)ccc2c1`: 273 nM; `c1ccc2nc(N3CCC(Oc4nccnc4N4CC5(COC5)C4)CC3)ccc2c1`: 345 nM. In turn, `c1ccc2nc(N3CC(Oc4nccnc4N4CCC5(CC4)COC5)C3)ccc2c1` returned a half-inhibitory concentration (IC50) of 43.6 nM.

Take `C1=CCN(c2nccnc2OC2CN(c3ccc4ccccc4n3)C2)CC1`: the concentration for half-maximal inhibition (IC50) was 314 nM.

Regarding `c1ccc2nc(N3CC(Oc4nccnc4N4CCC4)C3)ccc2c1`, the half-inhibitory concentration (IC50) is 86.1 nM. Molecule `c1ccc2nc(N3CC(Oc4nccnc4N4CCCC4)C3)ccc2c1` had an IC50 of 10000 nM. The result for `c1ccc2nc(N3CC(Oc4nccnc4N4CCCCCC4)C3)ccc2c1` reads 334 nM; that for `OC[C@H]1CCCN1c1nccnc1OC1CN(c2ccc3ccccc3n2)C1`, 150 nM; that for `c1ccc2nc(N3CC(Oc4nccnc4N4CCCOCC4)C3)ccc2c1`, 44.6 nM. `OC1CCCN(c2nccnc2OC2CN(c3ccc4ccccc4n3)C2)CC1` (centres undefined) displayed a 50% inhibitory concentration (IC50) of 29.5 nM. Next, `CN1CCCN(c2nccnc2OC2CN(c3ccc4ccccc4n3)C2)CC1`: 2990 nM; `OCC1CCN(c2nccnc2NC2CN(c3ccc4ccccc4n3)C2)CC1`: 20 nM; `OCC1CCN(c2ccc(Br)c(OC3CN(c4ccc5ccccc5n4)C3)n2)CC1`: 0.229 nM.

`OCC1CCN(c2ncc(Cl)c(OC3CN(c4ccc5ccccc5n4)C3)n2)CC1` registered a half-maximal inhibitory concentration (IC50) of 10 nM. For `OCC1CCN(c2ncc(F)c(OC3CN(c4ccc5ccccc5n4)C3)n2)CC1`, the IC50 was determined as 20 nM.

As for `OCC1CCN(c2ncc(Br)c(OC3CN(c4cnc5ccccc5n4)C3)n2)CC1`, the IC50 worked out at 24.2 nM.

Consider `OC1CCN(c2ncc(Br)c(OC3CN(c4ccc5ccccc5n4)C3)n2)CC1`, for which the midpoint of inhibition, the IC50, lay at 73.7 nM.

Turning to `COC(=O)C1CCN(c2ncc(Br)c(OC3CN(c4ccc5ccccc5n4)C3)n2)CC1`, half-maximal inhibition (IC50) required 1340 nM. The result for `CC1CCN(c2ncc(Br)c(OC3CN(c4ccc5ccccc5n4)C3)n2)CC1` reads 358 nM; that for `OCC1CCN(c2ncc(Br)c(OC3CN(c4ccc5ccccc5n4)C3)n2)C1` (centres undefined), 20.6 nM; that for `OCC1CCN(c2ncc(Br)c(OC3CN(c4ncc5ccccc5n4)C3)n2)CC1`, 14.6 nM.

`CN1CCN(c2nccnc2OC2CN(c3ccc4ccccc4n3)C2)CC1` showed a concentration for half-maximal inhibition (IC50) of 683 nM.

`N#CC1CCN(c2nc3ccccc3nc2OC2CN(c3ccc4ccccc4n3)C2)CC1`: the IC50 worked out at 19.2 nM. Consider `CN1CCN(c2nccnc2OC2CN(c3ccc4ccccc4n3)C2)CC1=O`, for which the 50% inhibitory concentration (IC50) was found to be 33.9 nM. The result for `OCC1CCCN(c2nccnc2OC2CN(c3ccc4ccccc4n3)C2)C1` (centres undefined) reads 40.6 nM; that for `OC1CCN(c2nccnc2OC2CN(c3ccc4ccccc4n3)C2)C1` (centres undefined), 67 nM. `c1ccc2nc(N3CC(Oc4nccnc4N4CCC(N5CCCC5)CC4)C3)ccc2c1` displayed an IC50 of 571 nM. For `CC1CN(c2nccnc2OC2CN(c3ccc4ccccc4n3)C2)CCO1` (centres undefined), the IC50 is 62.8 nM.

As for `OCC1CN(c2nccnc2OC2CN(c3ccc4ccccc4n3)C2)CCO1` (centres undefined), the IC50 came to 88.6 nM. Consider `O=C(c1nc2ccccc2[nH]1)N1CC(Oc2nccnc2N2CCOCC2)C1`, for which inhibition was half-maximal at 377 nM (IC50).

The molecule `CC(=O)N1CCN(c2nccnc2OC2CN(C(=O)c3nc4ccccc4[nH]3)C2)CC1` came in with an IC50 of 637 nM. Molecule `O=C(c1nc2ccccc2[nH]1)N1CC(Oc2nccnc2N2CCC(O)CC2)C1` showed a concentration for half-maximal inhibition (IC50) of 186 nM.

Consider `N#CC1CCN(c2cc(F)cnc2OC2CN(c3ccc4ccccc4n3)C2)CC1`, for which the IC50 was found to be 15.1 nM. In turn, `Cc1cnc(OC2CN(c3ccc4ccccc4n3)C2)c(N2CCC(CO)CC2)c1` came in with an IC50 of 1.52 nM.

For the molecule `OCC1CCN(c2ncc(Br)c(OC3CN(c4ccc5ccccc5n4)C3)n2)CC1`, the concentration for half-maximal inhibition (IC50) amounted to 7 nM. In turn, `OCC1CCCN(c2ncc(Br)c(OC3CN(c4ccc5ccccc5n4)C3)n2)C1` (centres undefined) displayed an IC50 of 60 nM. For `OCC1CCCCN1c1ncc(Br)c(OC2CN(c3ccc4ccccc4n3)C2)n1` (centres undefined), the IC50 amounted to 260 nM. Turning to `OCC1CCN(c2ncc(N3CCCCC3)c(OC3CN(c4ccc5ccccc5n4)C3)n2)CC1`, the concentration for half-maximal inhibition (IC50) is 18.4 nM. The result for `CC(O)C1CCN(c2nccnc2OC2CN(c3ccc4ccccc4n3)C2)CC1` (centres undefined) reads 46.9 nM; that for `CC(O)C1CCN(c2ncc(Br)c(OC3CN(c4ccc5ccccc5n4)C3)n2)CC1` (centres undefined), 242 nM. The result for `CC(=O)N1CC2(C1)CN(c1nccnc1OC1CCN(c3ccc4ccccc4n3)CC1)C2` reads 1270 nM; that for `CC(=O)N1CCN(c2nccnc2OC2CN(c3ccc4ccccc4n3)C2)CC1`, 77.5 nM; that for `COC1CCN(c2nccnc2OC2CCN(c3ccc4ccccc4n3)CC2)CC1`, 59.6 nM. The molecule `COCC1CCN(c2nccnc2OC2CCN(c3ccc4ccccc4n3)CC2)CC1` returned a half-maximal inhibitory concentration (IC50) of 1120 nM.

The molecule `O=C1CCN(c2nccnc2OC2CCN(c3ccc4ccccc4n3)CC2)CC1` showed an IC50 of 195 nM. `O=C1CCN(c2nccnc2OC2CN(c3ccc4ccccc4n3)C2)CC1` yielded a half-maximal inhibitory concentration (IC50) of 110 nM. In the case of `CC(C)(O)C1CCN(c2nccnc2OC2CCN(c3ccc4ccccc4n3)CC2)CC1`, the half-maximal inhibitory concentration (IC50) came to 85.8 nM.

The molecule `CC(C)(O)C1CCN(c2nccnc2OC2CN(c3ccc4ccccc4n3)C2)CC1` yielded an IC50 of 83.6 nM. The result for `Cc1cnccc1-c1nccnc1OC1CCN(c2ccc3ccccc3n2)CC1` reads 34.7 nM; that for `c1ccc2nc(N3CCC(Oc4nccnc4-c4ccncc4)CC3)ccc2c1`, 35.7 nM.

`COc1ncccc1-c1nccnc1OC1CCN(c2ccc3ccccc3n2)CC1` showed a half-maximal inhibitory concentration (IC50) of 118 nM.

Molecule `Clc1cnccc1-c1nccnc1OC1CCN(c2ccc3ccccc3n2)CC1` yielded an IC50 of 83.9 nM.
